Experimental data reported in patent US20240041042A1, “1-(PYRIDYL)-5-AZINYLPYRAZOLE DERIVATIVES, AND THEIR USE FOR CONTROL OF UNDESIRED PLANT GROWTH” (Bayer Aktiengesellschaft, priority 2020, published 2024).

Columns and labels:
Type in all cases: in vivo
[1] = system: Amaranthus retroflexus (AMARE); test: Pre-emergence herbicidal action against AMARE; conditions: visual scoring after about 3 weeks vs untreated controls
In short: (§1)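 Read-out is visual percent damage relative to untreated pots, with 100% meaning dead plants and 0% meaning no difference, assessed roughly three weeks after treatment. Compounds were applied pre-emergence to the covering soil at up to 320 g/ha.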

[2] = system: Echinochloa crus-galli (ECHCG); test: Post-emergence herbicidal action against ECHCG
In short: (§2)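 Post-emergence greenhouse spray, one-leaf stage, 600 l/ha water plus 0.5% additive; WP or EC formulations; application rates 320 g/ha or lower. Visual % damage vs untreated controls at ~3 weeks.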

Lolium rigidum (LOLRI) = test: Post-emergence herbicidal action against LOLRI
In short: as §2

[3] = system: Verconica persica (VERPE); test: Pre-emergence herbicidal action against VERPE
In short: as §1

Avena fatua (AVEFA) = test: Pre-emergence herbicidal action against AVEFA; conditions: visual scoring after about 3 weeks vs untreated controls
In short: as §1

[4] = system: Matricaria inodora (MATIN); test: Post-emergence herbicidal action against MATIN
In short: as §2

[5] = system: Alopecurus myosuroides (ALOMY); test: Post-emergence herbicidal action against ALOMY; conditions: visual rating about 3 weeks after treatment vs untreated controls (100% = plants have died, 0% = like control plants)
In short: as §2

[6] = system: Abutilon theophrasti (ABUTH); test: Pre-emergence herbicidal action against ABUTH; conditions: 100% = plants have died
In short: as §1

[7] = system: Alopecurus myosuroides (ALOMY); test: Pre-emergence herbicidal action against ALOMY; conditions: scored visually after about 3 weeks, 100% = plants have died
In short: as §1

[8] = system: Amaranthus retroflexus (AMARE); test: Post-emergence herbicidal action against AMARE
In short: as §2

[9] = 80 g/ha, scored visually after about 3 weeks vs untreated controls, 0% = like control plants
[10] = Dosage column 320 g/ha (title prints 3200 g/ha), scored visually after about 3 weeks
[11] = 80 g/ha, visual rating about 3 weeks after treatment vs untreated controls (100% = plants have died, 0% = like control plants)
[12] = 320 g/ha, visual rating about 3 weeks after treatment

With COC(=O)CNC(=O)[C@@H](C)Oc1nn(-c2ccccn2)c(-c2cncc(F)c2)c1Br [Example I-187] the “Pre-emergence action against AMARE in %” value ([1]; 80 g/ha) was 80%, the “Pre-emergence action against AMARE in %” value ([1]; 320 g/ha) was 100% and the “Post-emergence action against ECHCG in %” value ([2]; dosage 80 g/ha) was 80%. For the same compound, the “Post-emergence action against ECHCG in %” value ([2]; dosage 320 g/ha) was 80%, the “Post-emergence action against LOLRI in %” value (Lolium rigidum (LOLRI); dosage 80 g/ha) was 90% and the “Post-emergence action against LOLRI in %” value (Lolium rigidum (LOLRI); dosage 320 g/ha) was 90%. For the same compound, the “Pre-emergence action against VERPE in %” value ([3]; dosage 80 g/ha) was 90%, the “Pre-emergence action against VERPE in %” value ([3]; dosage 320 g/ha) was 90% and the “Pre-emergence action against AVEFA in %” value (Avena fatua (AVEFA); 320 g/ha) was 90%. The “Post-emergence action against MATIN in %” value ([4]; dosage 320 g/ha) was 80%, the “Post-emergence action against ALOMY in %” value ([5]; 320 g/ha) was 90% and the “Pre-emergence action against ABUTH” value [6, 9] was 80%. For the same compound, the “Pre-emergence action against ABUTH” value [6, 10] was 90%, the “Pre-emergence action against ALOMY” value ([7]; 80 g/ha) was 90% and the “Pre-emergence action against ALOMY” value ([7]; 320 g/ha) was 100%.
For CCOC(=O)COc1nn(-c2nc(F)ccc2F)c(-c2cncc(F)c2)c1Br [Example I-193], the “Pre-emergence action against AMARE in %” value ([1]; 80 g/ha) was 80%, the “Pre-emergence action against AMARE in %” value ([1]; 320 g/ha) was 100% and the “Post-emergence action against ECHCG in %” value ([2]; dosage 80 g/ha) was 90%. The “Post-emergence action against ECHCG in %” value ([2]; dosage 320 g/ha) was 90%, the “Post-emergence action against LOLRI in %” value (Lolium rigidum (LOLRI); dosage 320 g/ha) was 90% and the “Pre-emergence action against VERPE in %” value ([3]; dosage 80 g/ha) was 80%. For the same compound, the “Pre-emergence action against VERPE in %” value ([3]; dosage 320 g/ha) was 90%, the “Pre-emergence action against AVEFA in %” value (Avena fatua (AVEFA); 320 g/ha) was 90% and the “Post-emergence action against MATIN in %” value ([4]; dosage 320 g/ha) was 80%. For the same compound, the “Post-emergence action against AMARE in %” value [8, 11] was 80%, the “Post-emergence action against AMARE in %” value [8, 12] was 80% and the “Post-emergence action against ALOMY in %” value ([5]; 80 g/ha) was 90%. The “Post-emergence action against ALOMY in %” value ([5]; 320 g/ha) was 100% and the “Pre-emergence action against ALOMY” value ([7]; 320 g/ha) was 90%.
In the case of COC(=O)COc1nn(-c2nc(F)ccc2F)c(-c2cncc(F)c2)c1C1CC1 [Example I-164], the “Pre-emergence action against AMARE in %” value ([1]; 80 g/ha) is reported as 100%, the “Pre-emergence action against AMARE in %” value ([1]; 320 g/ha) is reported as 100% and the “Post-emergence action against ECHCG in %” value ([2]; dosage 80 g/ha) is reported as 80%. The “Post-emergence action against ECHCG in %” value ([2]; dosage 320 g/ha) was 80%, the “Post-emergence action against LOLRI in %” value (Lolium rigidum (LOLRI); dosage 80 g/ha) was 80% and the “Post-emergence action against LOLRI in %” value (Lolium rigidum (LOLRI); dosage 320 g/ha) was 90%. For the same compound, the “Pre-emergence action against VERPE in %” value ([3]; dosage 80 g/ha) was 90%, the “Pre-emergence action against VERPE in %” value ([3]; dosage 320 g/ha) was 100% and the “Pre-emergence action against AVEFA in %” value (Avena fatua (AVEFA); 80 g/ha) was 90%. For the same compound, the “Pre-emergence action against AVEFA in %” value (Avena fatua (AVEFA); 320 g/ha) was 90%, the “Post-emergence action against MATIN in %” value ([4]; dosage 320 g/ha) was 80% and the “Post-emergence action against ALOMY in %” value ([5]; 80 g/ha) was 100%. For the same compound, the “Post-emergence action against ALOMY in %” value ([5]; 320 g/ha) was 100%, the “Pre-emergence action against ABUTH” value [6, 10] was 80% and the “Pre-emergence action against ALOMY” value ([7]; 80 g/ha) was 100%. The “Pre-emergence action against ALOMY” value ([7]; 320 g/ha) was 100%.
O=C(O)COc1nn(-c2nc(F)ccc2F)c(-c2cncc(F)c2)c1C1CC1 [Example I-148] was tested, and the “Pre-emergence action against AMARE in %” value ([1]; 80 g/ha) was 100%, the “Pre-emergence action against AMARE in %” value ([1]; 320 g/ha) was 100% and the “Post-emergence action against ECHCG in %” value ([2]; dosage 80 g/ha) was 80%. The “Post-emergence action against ECHCG in %” value ([2]; dosage 320 g/ha) was 80%, the “Post-emergence action against LOLRI in %” value (Lolium rigidum (LOLRI); dosage 80 g/ha) was 80% and the “Post-emergence action against LOLRI in %” value (Lolium rigidum (LOLRI); dosage 320 g/ha) was 80%. For the same compound, the “Pre-emergence action against VERPE in %” value ([3]; dosage 80 g/ha) was 90%, the “Pre-emergence action against VERPE in %” value ([3]; dosage 320 g/ha) was 100% and the “Pre-emergence action against AVEFA in %” value (Avena fatua (AVEFA); 80 g/ha) was 80%. The “Pre-emergence action against AVEFA in %” value (Avena fatua (AVEFA); 320 g/ha) was 90%, the “Post-emergence action against MATIN in %” value ([4]; dosage 80 g/ha) was 80% and the “Post-emergence action against MATIN in %” value ([4]; dosage 320 g/ha) was 80%. For the same compound, the “Post-emergence action against ALOMY in %” value ([5]; 80 g/ha) was 80%, the “Post-emergence action against ALOMY in %” value ([5]; 320 g/ha) was 90% and the “Pre-emergence action against ALOMY” value ([7]; 80 g/ha) was 100%. For the same compound, the “Pre-emergence action against ALOMY” value ([7]; 320 g/ha) was 100%.
COC(=O)[C@@H](C)COC(=O)COc1nn(-c2ccccn2)c(-c2cncc(F)c2)c1Br [Example I-194] was tested, and the “Pre-emergence action against AMARE in %” value ([1]; 80 g/ha) was 100%, the “Pre-emergence action against AMARE in %” value ([1]; 320 g/ha) was 100% and the “Post-emergence action against ECHCG in %” value ([2]; dosage 80 g/ha) was 80%. For the same compound, the “Post-emergence action against ECHCG in %” value ([2]; dosage 320 g/ha) was 80%, the “Post-emergence action against LOLRI in %” value (Lolium rigidum (LOLRI); dosage 80 g/ha) was 80% and the “Post-emergence action against LOLRI in %” value (Lolium rigidum (LOLRI); dosage 320 g/ha) was 90%. The “Pre-emergence action against VERPE in %” value ([3]; dosage 320 g/ha) was 90%, the “Pre-emergence action against AVEFA in %” value (Avena fatua (AVEFA); 80 g/ha) was 80% and the “Pre-emergence action against AVEFA in %” value (Avena fatua (AVEFA); 320 g/ha) was 90%. The “Post-emergence action against AMARE in %” value [8, 11] was 80%, the “Post-emergence action against AMARE in %” value [8, 12] was 90% and the “Post-emergence action against ALOMY in %” value ([5]; 80 g/ha) was 90%. The “Post-emergence action against ALOMY in %” value ([5]; 320 g/ha) was 90%, the “Pre-emergence action against ABUTH” value [6, 10] was 80% and the “Pre-emergence action against ALOMY” value ([7]; 80 g/ha) was 80%. The “Pre-emergence action against ALOMY” value ([7]; 320 g/ha) was 100%.
For O=C(O)COc1nn(-c2ccccn2)c(-c2cncnc2)c1Br [Example I-66], the “Pre-emergence action against AMARE in %” value ([1]; 80 g/ha) was 90%, the “Pre-emergence action against AMARE in %” value ([1]; 320 g/ha) was 100% and the “Post-emergence action against ECHCG in %” value ([2]; dosage 80 g/ha) was 80%. For the same compound, the “Post-emergence action against ECHCG in %” value ([2]; dosage 320 g/ha) was 90%, the “Post-emergence action against LOLRI in %” value (Lolium rigidum (LOLRI); dosage 320 g/ha) was 90% and the “Pre-emergence action against VERPE in %” value ([3]; dosage 320 g/ha) was 100%. The “Pre-emergence action against AVEFA in %” value (Avena fatua (AVEFA); 320 g/ha) was 90%, the “Post-emergence action against MATIN in %” value ([4]; dosage 80 g/ha) was 80% and the “Post-emergence action against MATIN in %” value ([4]; dosage 320 g/ha) was 90%. For the same compound, the “Post-emergence action against AMARE in %” value [8, 11] was 80%, the “Post-emergence action against AMARE in %” value [8, 12] was 90% and the “Post-emergence action against ALOMY in %” value ([5]; 80 g/ha) was 100%. The “Post-emergence action against ALOMY in %” value ([5]; 320 g/ha) was 100%, the “Pre-emergence action against ALOMY” value ([7]; 80 g/ha) was 100% and the “Pre-emergence action against ALOMY” value ([7]; 320 g/ha) was 100%.
For C[C@@H](Oc1nn(-c2ncccc2F)c(-c2ccc(F)nc2)c1Br)C(=O)O [Example I-18], the “Pre-emergence action against AMARE in %” value ([1]; 80 g/ha) was 100%, the “Pre-emergence action against AMARE in %” value ([1]; 320 g/ha) was 100% and the “Post-emergence action against ECHCG in %” value ([2]; dosage 80 g/ha) was 80%. For the same compound, the “Post-emergence action against ECHCG in %” value ([2]; dosage 320 g/ha) was 80%, the “Post-emergence action against LOLRI in %” value (Lolium rigidum (LOLRI); dosage 320 g/ha) was 80% and the “Pre-emergence action against VERPE in %” value ([3]; dosage 80 g/ha) was 90%. The “Pre-emergence action against VERPE in %” value ([3]; dosage 320 g/ha) was 100%, the “Pre-emergence action against AVEFA in %” value (Avena fatua (AVEFA); 80 g/ha) was 90% and the “Pre-emergence action against AVEFA in %” value (Avena fatua (AVEFA); 320 g/ha) was 100%. The “Post-emergence action against MATIN in %” value ([4]; dosage 80 g/ha) was 80%, the “Post-emergence action against MATIN in %” value ([4]; dosage 320 g/ha) was 80% and the “Post-emergence action against ALOMY in %” value ([5]; 80 g/ha) was 90%. For the same compound, the “Post-emergence action against ALOMY in %” value ([5]; 320 g/ha) was 100%, the “Pre-emergence action against ABUTH” value [6, 9] was 80% and the “Pre-emergence action against ABUTH” value [6, 10] was 90%. The “Pre-emergence action against ALOMY” value ([7]; 80 g/ha) was 100% and the “Pre-emergence action against ALOMY” value ([7]; 320 g/ha) was 100%.
